{"source": "patent US11597738B2", "about": "(Mindset Pharma Inc., priority 2020, dated 2023)", "key": {"[1]": {"assay": "In vivo pharmacokinetics in mice", "conditions": "male C57BL/6 mice", "description": "(§1) Male C57BL/6 mice (25-30 g) and male Sprague-Dawley rats (250-325 g) from Charles River Labs were acclimatized for a minimum of 5 days prior to dosing. Body weights were recorded on the day of dosing.\n(§2) Animals dosed p.o. were deprived of food overnight and fed ˜2 h following dosing.\n(§3) Formulations were administered intravenously (i.v.) via the tail vein or orally (p.o.) by gavage with disposable feeding needles.\n(§4) Serial blood samples were collected via tail snip. Terminal blood samples were collected under isoflurane anesthesia by cardiac puncture.\n(§5) All blood samples were transferred into K2EDTA tubes on wet ice and centrifuged within 5 min (3200×g for 5 min at 4° C.) to obtain plasma. Plasma was stored at −80° C. until analysis.\n(§6) Mouse or Rat Plasma, as Applicable.\n(§7) AB Sciex QTRAP 4000 or 6500 MS/MS system equipped with an LC system with a binary pump, a solvent degasser, a thermostatted column compartment and a multiplate autosampler. i. Analysis software: Phoenix® WinNonlin® 8.2 (Pharsight, Certara, Mountainview, Calif.) ii. Analysis methods: non-compartmental analysis, linear up/log down trapezoidal rule iii. PK parameters: C0, t1/2, AUC0-tlast. AUC0-∞, CL, Vss, MRT, tmax(po), Cmax(po), F, as appropriate"}, "[2]": {"assay": "In vivo pharmacokinetics in rats", "conditions": "male Sprague-Dawley rats", "description": "as §1, §2, §3, §4, §5, §6, §7"}, "[3]": {"tested_on": "head-twitch response (HTR) in male C57BL6 mice", "assay": "Mouse head twitch (HTR)", "type": "in vivo, C57BL/6J mice", "conditions": "0.3-10 mg/kg SC, measured over 1 h", "description": "Data is expressed as mean+SEM. The induction of head twitches elicited by 5-HT2A receptor agonists is believed to represent a behavioural proxy of their psychedelic effects.\nThe effect of different doses of exemplary compounds of Formula I were evaluated on head-twitch response (HTR) as a behavior-based model of psychedelic activity.\nMale, C57BL/6J mice (body weight range 20-30 g) were dosed with the appropriate dose of test article, and following a 1-minute pre-treatment time, placed in individual observation chambers. Animals were visually assessed for the incidence head twitches continuously over a 1 hr period. Head twitches were defined as a rapid jerk of the head which was not elicited by an external tactile stimulus (Corne and Pickering, Psychopharmacologia, 1967, 11(1): 65-78). Each head twitch was individually counted by a trained observer, and the data expressed as the mean+SEM of 6-10 mice per group. Mice were used in a single experiment only."}}, "data": [{"smiles": "[2H]C([2H])([2H])N(C([2H])([2H])[2H])C([2H])([2H])C([2H])([2H])c1c[nH]c2cccc(O)c12", "note": "[Compound I-45, 3-(2-(bis(methyl-d3)amino)ethyl-1,1,2,2-d4)-1H-indol-4-ol]", "values": [{"measurement": "AUC0-inf/Dose", "setting": "[1]; i.v., 1 mg/kg", "value": "181 ± 30.8", "unit": "kg·ng·h/mL/mg"}, {"measurement": "AUC0-inf/Dose", "setting": "[1]; p.o., 10 mg/kg", "value": "79.5 ± 12.1", "unit": "kg·ng·h/mL/mg"}, {"measurement": "Cmax/Dose", "setting": "[1]; p.o., 10 mg/kg", "value": "70.4 ± 12.8", "unit": "kg·ng/mL/mg"}, {"measurement": "AUC0-inf/Dose", "setting": "[2]; i.v., 0.3 mg/kg", "value": "181 ± 30.8", "unit": "kg·ng·h/mL/mg"}, {"measurement": "AUC0-inf/Dose", "setting": "[2]; p.o.", "value": "181 ± 14.6", "unit": "kg·ng·h/mL/mg"}, {"measurement": "Cmax/Dose", "setting": "[2]; p.o., 3.0 mg/kg (title; dose row prints 10)", "value": "79.2 ± 24.4", "unit": "kg·ng/mL/mg"}, {"measurement": "AUC0-inf/Dose", "setting": "[2]; s.c., 0.3 mg/kg", "value": "120 ± 29.0", "unit": "kg·ng·h/mL/mg"}, {"measurement": "Cmax/Dose", "setting": "[2]; s.c., 0.3 mg/kg", "value": "101 ± 40.7", "unit": "kg·ng/mL/mg"}, {"measurement": "AUC(0-inf)", "setting": "[2]; rat, plasma, iv, 0.3 mg/kg", "value": "117 ± 11.5", "unit": "ng·h/mL"}, {"measurement": "C0", "setting": "[2]; rat, plasma, iv, 0.3 mg/kg", "value": "76.5 ± 7.49", "unit": "ng/mL"}, {"measurement": "head twitch frequency compared to vehicle control", "setting": "[3]", "value": "dose dependent increase in head twitch frequency"}]}]}
